pIC50: −log10 of the molar value. Counter-ions that a name gives are not always drawn. Like-named read-outs stand apart in the source and are kept apart here.
Columns and labels:
[1] = system: BCRP-overexpressing cells (Flp-In-293/BCRP); test: Influence on anti-cancer agent (SN-38) resistance in BCRP-overexpressing cells, MTT assay; format: cell-based; settings: Flp-In-293/ABCG2 cells; for degree of reversing resistance to SN-38: at the concentration of 5 μmol/L, 72 hours
Protocol: (§1) The cells were cultured under the atmosphere of 5% CO2 using DMEM containing FCS (10%), penicillin (100 U/mL), streptomycin (100 μg/mL), amphotericin B (250 ng/mL), hygromycin B (100 μg/mL), and L-glutamine (2 mmol/L).
(§2) The resistance of Flp-In-293 cells to an agent was profiled by counting living cells using MTT assay. In more detail, the cells were seeded in 96-wells plate at the concentration of 2×10^3 cells/well, and cultured for 24 hours.

BCRP [2] = target: T1, BCRP (Homo sapiens, UniProt Q9UNQ0); test: BCRP-mediated methotrexate transport in membrane vesicles of BCRP-expressing Sf9 cells; settings: for inhibitory action on BCRP-mediated methotrexate transport: at concentration of 100 μmol/L
T1 sequence (Q9UNQ0 1-655): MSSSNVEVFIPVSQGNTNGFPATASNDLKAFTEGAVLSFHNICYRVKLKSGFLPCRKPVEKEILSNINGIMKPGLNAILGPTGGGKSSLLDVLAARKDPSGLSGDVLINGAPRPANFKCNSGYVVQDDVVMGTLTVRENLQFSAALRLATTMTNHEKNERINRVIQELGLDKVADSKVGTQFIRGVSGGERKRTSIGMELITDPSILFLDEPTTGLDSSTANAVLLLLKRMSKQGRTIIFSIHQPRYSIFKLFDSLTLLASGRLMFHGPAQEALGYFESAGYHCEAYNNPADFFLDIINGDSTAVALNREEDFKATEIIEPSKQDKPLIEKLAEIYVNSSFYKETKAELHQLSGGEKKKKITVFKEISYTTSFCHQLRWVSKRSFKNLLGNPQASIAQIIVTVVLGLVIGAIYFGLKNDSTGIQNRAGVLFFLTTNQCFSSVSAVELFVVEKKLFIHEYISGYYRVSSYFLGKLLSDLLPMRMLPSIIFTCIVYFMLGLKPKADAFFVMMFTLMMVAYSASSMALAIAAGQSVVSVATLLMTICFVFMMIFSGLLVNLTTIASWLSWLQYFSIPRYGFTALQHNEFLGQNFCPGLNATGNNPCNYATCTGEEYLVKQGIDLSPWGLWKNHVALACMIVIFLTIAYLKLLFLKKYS
Protocol: (§3) In the experiment, plasma membrane was prepared from BCRP-expressing Sf9 cells.
(§4) The activity of methotrexate transport was measured using 96 wells-plate according to the following method.
(§5) Preparation and Composition of Reaction Solution
(§6) 50 μL of solution containing sucrose (250 mmol/L) and Tris/Hepes (10 mmol/L, pH: 7.4)
(§7) 30 μL of solution containing ATP (3.33 mmol/L), creatine phosphate (33.3 mmol/L), and MgCl2 (33.3 mmol/L)
(§8) (or solution containing creatine phosphate (33.3 mmol/L) and MgCl2 (33.3 mmol/L))
5 μL of creatine kinase (2 mg/mL)
(§9) 2 μL of [^3H]methotrexate (10 mmol/L, final concentration: 200 μmol/L)
(§10) 10 μL of membrane sample of BCRP-expressing Sf9 cells (total protein: 50 μg)
(§11) The reaction solution was incubated at 37° C. for 20 minutes. 1 mL of ice-cooled solution containing sucrose (250 mmol/L), EDTA (2 mmol/L), and Tris/Hepes (10 mmol/L, pH: 7.4) was quickly added to the reaction solution to stop the reaction. Each 270 μL of the mixed solution was poured into each well of MultiScreen™ (Millipore), and sucked. The wells were washed four times with 200 μL of ice-cooled solution containing sucrose (250 mmol/L) and Tris/Hepes (10 mmol/L, pH: 7.4). The radioactivity trapped on a filter of each well was measured. The amount of methotrexate transported into the membrane vesicle was calculated from the radioactivity.

Flp-In-293/ABCG2 cells = test: Toxicity to the cells (viability, MTT assay); settings: at or up to the concentration of 10 μmol/L
Protocol: as §1, §2

BCRP [3] = target: T1, BCRP
Protocol: as §3, §4, §5, §6, §7, §8
5 μL of creatine kinase (2 mg/mL)
as §9, §10, §11

SMILES	effect of overcoming resistance to SN-38 (in words) [1]	degree of reversing resistance to SN-38 [1]	toxicity to the cells / effect on viability (Flp-In-293/ABCG2 cells)	pIC50 (BCRP [2])	further results
N#Cc1cc(-c2nc3c([O-])ncnc3s2)ccc1Oc1ccc(F)cc1.[K+] [Compound 1, potassium salt of 2-[3-cyano-4-(4-fluorophenoxy)phenyl]-4-hydroxythiazolo[5,4-d]pyrimidine]	reversed the resistance of Flp-In-293/ABCG2 cells to SN-38 in a concentration-dependent manner	about 96%	did not affect viability	–	pIC50 (BCRP [2]; read-out: IC50 (concentration inhibiting methotrexate transport by 50%), [3H]methotrexate 200 μmol/L, 37° C., 20 minutes): 6.34
N#Cc1cc(-c2nc3cncnc3s2)ccc1Oc1ccc(F)cc1 [Compound 2, 2-[3-cyano-4-(4-fluorophenoxy)phenyl]thiazolo[5,4-d]pyrimidine]	reversed the resistance of Flp-In-293/ABCG2 cells to SN-38 in a concentration-dependent manner	about 90%	–	5.96	–
N#Cc1cc(-c2nc3c(O)ncnc3s2)ccc1Oc1ccccc1 [Compound 3, potassium salt of 2-(3-cyano-4-phenoxyphenyl)-4-hydroxythiazolo[5,4-d]pyrimidine]	–	–	–	–	pIC50 (BCRP [3]): 6.64
N#Cc1cc(-c2nc3cncnc3s2)ccc1Oc1ccccc1 [Compound 4, 2-(3-cyano-4-phenoxyphenyl)thiazolo[5,4-d]pyrimidine]	–	–	–	6.18	–
N#Cc1cc(-c2nc3c(O)ncnc3s2)ccc1Oc1ccccc1 [Compound 5, 2-(3-cyano-4-phenoxyphenyl)-4-hydroxythiazolo[5,4-d]pyrimidine]	–	about 96%	did not exhibit toxicity to the cells	–	–
CC(C)(C)COc1ccc(-n2cc(C(=O)O)cn2)cc1C#N [Compound Y-700, 1-[3-cyano-4-(2,2-dimethylpropoxy)phenyl]-1H-pyrazole-4-carboxylic acid]	did not exhibit an effect of overcoming the resistance in the concentration not exhibiting toxicity to the cells	–	–	–	–
N#Cc1cc(-c2n[nH]c(-c3ccncc3)n2)ccn1 [FYX-051, 4-[5-pyridin-4-yl-1H-[1,2,4]triazol-3-yl]pyridine-2-carbonitrile]	–	about 39%	–	6.11	–
Cc1nc(-c2ccc(OCC(C)C)c(C#N)c2)sc1C(=O)O [TMX-67, Febuxostat]	–	about 82%	did not exhibit toxicity to the cells	6.60	–
Oc1ncnc2[nH]ncc12 [allopurinol]	did not exhibit an effect of overcoming resistance to SN-38	–	did not exhibit toxicity to the cells	–	inhibitory action on BCRP-mediated methotrexate transport (BCRP [2]): did not exhibit an inhibitory action
O=c1[nH]c(=O)c2c[nH]nc2[nH]1 [oxypurinol]	did not exhibit an effect of overcoming resistance to SN-38	–	–	–	inhibitory action on BCRP-mediated methotrexate transport (BCRP [2]): did not exhibit an inhibitory action

— patent US8314085B2, “Agent for overcoming resistance to anti-cancer agent” (Nippon Chemiphar Co., Ltd., priority 2006, dated 2012)
